Source: patent publication US20220168392A1 (priority 2019, published 2022)
Square brackets hold non-standard residues; d marks the D form. * marks the point of attachment. 2Nal = N[C@@H](Cc1ccc2ccccc2c1)C(=O)O; Propionyl = CCC(=O)*; Sar = CNCC(=O)O

Experiments:
healthy rhesus monkeys = test: Maximum platelet count to baseline in healthy rhesus monkeys, escalating doses; type: in vivo, rhesus monkey; parameters: key to pharmacodynamics (PD) effect class of the dose (beneficial effects on survival): **: large pharmacodynamics (PD) effect; *: modest effect
Protocol: A pilot PK/PD study was performed to evaluate the efficacy of RWJ-800088 in rhesus monkeys (Study No. 2016-2693—CiToxLAB North America). Rhesus monkeys (n=10/group, 5 male/5 female) were treated with vehicle or RWJ-800088 (a single dose of 30 mg/kg RWJ-800088) administered 24 hours post TBI gamma radiation (600 cGY). […] The ratio of the maximum platelet count to baseline following escalating doses of RWJ-800088 to healthy rhesus monkeys is as follows: 0.97±0.06× at 0.5 mg/kg, 1.08±0.15× at 2 mg/kg, 1.98±0.16× at 10 mg/kg, 2.9±0.03× at 20 mg/kg, and 3.83±0.11× at 40 mg/kg).
The ratio of the maximum platelet counts to the baseline platelet counts following single escalating doses of RWJ-800088 to mice, rats, dogs, rhesus monkeys and human healthy volunteers is shown in Table 5. The dose required to achieve a 2-3.5-fold elevation in humans is ˜100-fold lower compared to mice, ˜1,000-fold lower compared to rats and >10,000-fold lower compared to canines and NHPs. […] The species differences in potency has been described for other TPO mimetics in the literature and is attributed to differences in receptor affinity (Erickson-Miller C L, et al. Discovery and characterization of a selective, nonpeptidyl thrombopoietin receptor agonist. Exp. Hematol. 2005; 33:85-93). […] It is discovered that the dose of RWJ-800088 that produces a survival benefit and protects against vascular and organ injury is the dose that produces a 2-4 fold elevation of platelets (Table 6).

[1] = tested on: subjects with cancer receiving platinum-based chemotherapy; test: Study NAP1002: cancer patients receiving platinum-based chemotherapy; type: in vivo, human
Protocol: In the second randomized, double-blind Phase 1 study (NAP1002), 46 subjects with cancer receiving platinum-based chemotherapy were enrolled into 3 cohorts: 12 subjects received 1.5 μg/kg RWJ-800088, 12 subjects received 2.25 μg/kg, 10 subjects received 3 μg/kg, and 12 subjects received placebo within 2 hours before administration of platinum-based chemotherapy on Day 1 of the first of 2 chemotherapy cycles. There was a 21-day interval between each chemotherapy cycle.

mouse bone marrow cells = test: Hematopoietic progenitor clonogenic (CFU) assay of bone marrow after 7 Gy TBI; type: in vivo
Protocol: Hematopoietic Progenitor Clonogenic Assay: Clonogenicity of mouse bone marrow cells was quantified in standard semisolid cultures using 1 mL of Methocult GF+ system for mouse cells (Stem Cell Technologies Inc., Vancouver, BC) according to the manufacturer's instructions. Briefly, colony forming units (CFU) were assayed on days 0 (2 h post-TBI), 1, 3, 7, 15, and 30 after 7 Gy exposure or unirradiated mice. Cells from three femurs from different animals were pooled, washed twice with IMDM and seeded at 1 to 5×10^4 cells per 35 mm cell culture dishes (BD Biosciences, San Jose, Calif.). Each sample was plated in duplicate to be scored 14 days after plating. Granulocyte-macrophage colony forming units (CFU-GM), granulocyte-erythrocyte-monocyte-[…] CFU (CFU-GEMM), colony-forming unit-erythroid (CFU-E) and erythroid burst-forming units (BFU-E) were identified and quantified following the manufacturer's instructions. Colonies were counted 14 days after plating using a Nikon TS100F microscope. Fifty or more cells were considered one colony. Data were expressed as mean f standard error of mean (SEM). Statistical significance was determined between irradiated vehicle treated and RWJ-800088-treated groups.

## methoxypolyethyleneglycol20000-propionyl-L-Isoleucyl-L-Glutamyl-Glycyl-L-Prolyl-L-Threonyl-L-Leucyl-L-Arginyl-L-Glutaminyl-L-2-Naphthylalanyl-L-Leucyl-L-Alanyl-L-Alanyl-L-Arginyl-Sarcosyl-Ne-(methoxypolyethyleneglycol20000-propionyl-L-Isoleucyl-L-Glutamyl-Glycyl-L-Prolyl-L-Threonyl-L-Leucyl-L-Arginyl-L-Glutaminyl-L-2-Naphthylalanyl-L-Leucyl-L-Alanyl-L-Alanyl-L-Arginyl-Sarcosyl-)-Lysinamide ({mPEG 20 kDa-Propionyl}-IEGPTLRQ[2Nal]LAAR[Sar]K-NH2; also: dimer: second identical mPEG-propionyl chain on Lys Nε of C-terminal lysinamide) [RWJ-800088]
Healthy rhesus monkeys; 0.5 mg/kg
  ratio of the maximum platelet count to baseline: 0.97±0.06 ×
Healthy rhesus monkeys; 2 mg/kg
  ratio of the maximum platelet count to baseline: 1.08±0.15 ×
Healthy rhesus monkeys; 10 mg/kg
  ratio of the maximum platelet count to baseline: 1.98±0.16 ×
Healthy rhesus monkeys; 20 mg/kg
  ratio of the maximum platelet count to baseline: 2.9±0.03 ×
Healthy rhesus monkeys; 40 mg/kg
  ratio of the maximum platelet count to baseline: 3.83±0.11 ×
Healthy rhesus monkeys; CiToxLAB North America Study No. 2016-2693, dose 30000 μg/kg
  NHP Max Platelet Ratio: 3.25
Healthy rhesus monkeys; Monkey, dose 40000 μg/kg
  Average of the Maximum Platelet Elevation/Baseline Platelet Counts: 3.83
Healthy rhesus monkeys; NHP, dose 30000 μg/kg
  pharmacodynamics (PD) effect class of the dose (beneficial effects on survival): *
Healthy rhesus monkeys; Rhesus
  Dose for 2.0-4x Platelet Elevation in Healthy Subjects: ≥30 mg/kg
Healthy rhesus monkeys; TOX9795/B201016-K013, dose 500 μg/kg
  NHP Max Platelet Ratio: 0.9 ± 0.1
Healthy rhesus monkeys; TOX9795/B201016-K013, dose 2000 μg/kg
  NHP Max Platelet Ratio: 1.1 ± 0.1
Healthy rhesus monkeys; TOX9795/B201016-K013, dose 10000 μg/kg
  NHP Max Platelet Ratio: 2.9 ± 0.0
Healthy rhesus monkeys; TOX9795/B201016-K013, dose 40000 μg/kg
  NHP Max Platelet Ratio: 3.8 ± 0.1
[1]; 1.5 μg/kg
  nadir and peak mean platelet counts vs placebo: similar
[1]; 1.5 μg/kg, each cycle
  day up to which mean platelet counts continued to decline: 15 days
[1]; 3 μg/kg
  platelet nadir and peak platelet counts, fold higher relative to placebo: approximately 2 fold
[1]; 3.0 μg/kg, both cycles
  day of peak mean platelet counts: 15 days
[1]; 1.5, 2.25, and 3 μg/kg
  serious adverse event of thrombocythemia (number): 1
[1]; 1.5, 2.25, and 3 μg/kg with platinum-based chemotherapy
  tolerability: well-tolerated
[1]; 2.25 and 3.0 μg/kg, each cycle
  day on which mean platelet counts were lowest: 10 days
[1]; 2.25 or 3.0 μg/kg
  nadir and peak platelet counts, fold higher than placebo: approximately 2 fold
[1]; Across cycles, 1.5 μg/kg
  Maximum Platelet Counts, GMR (Active/Placebo): 1.0
  Maximum Platelet Counts, Geometric Mean: 374760 µL⁻¹
  Minimum Platelet Counts, GMR (Active/Placebo): 0.6
  Minimum Platelet Counts, Geometric Mean: 34570 µL⁻¹
[1]; Across cycles, 2.25 μg/kg
  Maximum Platelet Counts, GMR (Active/Placebo): 1.6
  Maximum Platelet Counts, Geometric Mean: 574270 µL⁻¹
  Minimum Platelet Counts, GMR (Active/Placebo): 2.7
  Minimum Platelet Counts, Geometric Mean: 165790 µL⁻¹
[1]; Across cycles, 3.0 μg/kg
  Maximum Platelet Counts, GMR (Active/Placebo): 1.8
  Maximum Platelet Counts, Geometric Mean: 662940 µL⁻¹
  Minimum Platelet Counts, GMR (Active/Placebo): 2.2
  Minimum Platelet Counts, Geometric Mean: 134260 µL⁻¹
[1]; Cycle 1, 1.5 μg/kg
  Maximum Platelet Counts, GMR (Active/Placebo): 1.1
  Maximum Platelet Counts, Geometric Mean: 329180 µL⁻¹
  Minimum Platelet Counts, GMR (Active/Placebo): 0.5
  Minimum Platelet Counts, Geometric Mean: 46800 µL⁻¹
[1]; Cycle 1, 2.25 μg/kg
  Maximum Platelet Counts, GMR (Active/Placebo): 1.9
  Maximum Platelet Counts, Geometric Mean: 564360 µL⁻¹
  Minimum Platelet Counts, GMR (Active/Placebo): 2.3
  Minimum Platelet Counts, Geometric Mean: 217590 µL⁻¹
[1]; Cycle 1, 3.0 μg/kg
  Maximum Platelet Counts, GMR (Active/Placebo): 2.1
  Maximum Platelet Counts, Geometric Mean: 642690 µL⁻¹
  Minimum Platelet Counts, GMR (Active/Placebo): 2.0
  Minimum Platelet Counts, Geometric Mean: 188250 µL⁻¹
[1]; Cycle 2, 1.5 μg/kg
  Maximum Platelet Counts, GMR (Active/Placebo): 0.9
  Maximum Platelet Counts, Geometric Mean: 294150 µL⁻¹
  Minimum Platelet Counts, GMR (Active/Placebo): 0.9
  Minimum Platelet Counts, Geometric Mean: 76170 µL⁻¹
[1]; Cycle 2, 2.25 μg/kg
  Maximum Platelet Counts, GMR (Active/Placebo): 1.3
  Maximum Platelet Counts, Geometric Mean: 401870 µL⁻¹
  Minimum Platelet Counts, GMR (Active/Placebo): 2.2
  Minimum Platelet Counts, Geometric Mean: 177540 µL⁻¹
[1]; Cycle 2, 3.0 μg/kg
  Maximum Platelet Counts, GMR (Active/Placebo): 1.4
  Maximum Platelet Counts, Geometric Mean: 434100 µL⁻¹
  Minimum Platelet Counts, GMR (Active/Placebo): 2.2
  Minimum Platelet Counts, Geometric Mean: 179930 µL⁻¹
[1]; Day 42, 1.5 μg/kg
  Change From Baseline in Hemoglobin, Difference of LS Mean (SE) vs Placebo: 0.54 g/dL
  Change From Baseline in Hemoglobin, LS Mean (SE): −1.63 (0.50) g/dL
[1]; Day 42, 2.25 μg/kg
  Change From Baseline in Hemoglobin, Difference of LS Mean (SE) vs Placebo: 0.57 g/dL
  Change From Baseline in Hemoglobin, LS Mean (SE): −1.60 (0.42) g/dL
[1]; Day 42, 3.0 μg/kg
  Change From Baseline in Hemoglobin, Difference of LS Mean (SE) vs Placebo: 1.00 g/dL
  Change From Baseline in Hemoglobin, LS Mean (SE): −1.16 (0.47) g/dL
[1]; Day 42, 3.0-μg/kg group
  decrease of mean Hb concentration from baseline: 1.16 g/dL
[1]; Day 63, 1.5 μg/kg
  Change From Baseline in Hemoglobin, Difference of LS Mean (SE) vs Placebo: -0.75 g/dL
  Change From Baseline in Hemoglobin, LS Mean (SE): −2.98 (0.70) g/dL
[1]; Day 63, 2.25 μg/kg
  Change From Baseline in Hemoglobin, Difference of LS Mean (SE) vs Placebo: 0.68 g/dL
  Change From Baseline in Hemoglobin, LS Mean (SE): −1.55 (0.61) g/dL
[1]; Day 63, 3.0 μg/kg
  Change From Baseline in Hemoglobin, Difference of LS Mean (SE) vs Placebo: 0.79 g/dL
  Change From Baseline in Hemoglobin, LS Mean (SE): −1.44 (0.61) g/dL
[1]; Day 84, 1.5 μg/kg
  Change From Baseline in Hemoglobin, Difference of LS Mean (SE) vs Placebo: 0.05 g/dL
  Change From Baseline in Hemoglobin, LS Mean (SE): −1.88 (0.59) g/dL
[1]; Day 84, 2.25 μg/kg
  Change From Baseline in Hemoglobin, Difference of LS Mean (SE) vs Placebo: 0.03 g/dL
  Change From Baseline in Hemoglobin, LS Mean (SE): −1.90 (0.55) g/dL
[1]; Day 84, 3.0 μg/kg
  Change From Baseline in Hemoglobin, Difference of LS Mean (SE) vs Placebo: 1.13 g/dL
  Change From Baseline in Hemoglobin, LS Mean (SE): −0.80 (0.59) g/dL
[1]; Humans, Phase 1b study, whole wrapped cell: Protection against thrombocytopenia and anemia
  Effects: Protection against
[1]; lower doses (1.5, 2.25 μg/kg), both cycles
  day of mean peak platelet counts: 21 days
[1]; two subjects at 3.0 μg/kg, first cycle (stopping criteria)
  transient platelet increase, times the baseline: more than 3 times the baseline
Mouse bone marrow cells; day 15 post-TBI 7 Gy, 24 h pre-TBI administration
  total number of colonies in the vehicle-treated group compared to the RWJ-800088 treated group: significantly lower
Mouse bone marrow cells; day 30 post-TBI 7 Gy
  GM, GEMM, BFU-E and CFU-E, vehicle-treated vs RWJ-800088 treated groups: significantly lower (p<0.0001)
